Where two headings read alike, the source gives them in different places.
System: NL-RLuc virus
Assay: Inhibition of HIV replication (NL-RLuc reporter virus in MT-2 cells, luciferase readout)
Format: cell-based
Settings: Human immunodeficiency virus 1, MT2, 120 h
How it was run: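 MT-2 cells infected with NL4-3-derived NL-RLuc reporter virus (Renilla luciferase replacing part of nef) with serial compound dilutions, RPMI 1640 + 10% FBS; 5 days. Growth by luciferase; EC50 from median effect equation, ≥2 experiments.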

SMILES | EC50 (read-out: Activity) [µM] | EC50 (read-out: EC50 μM) [µM]
Cc1nc(C)c([C@H](OC(C)(C)C)C(=O)O)c(N2CCC(C)(C)CC2)c1-c1ccc2c(c1)CCN(Cc1ccccc1OC(F)F)C2 [Compound 114, (S)-2-(tert-butoxy)-2-(5-(2-(2-(difluoromethoxy)benzyl)-1,2,3,4-tetrahydroisoquinolin-6-yl)-4-(4,4-dimethylpiperidin-1-yl)-2,6-dimethylpyridin-3-yl)acetic acid] | < 0.1 | –
COc1cccc(F)c1CN1CCc2cc(-c3c(C)nc(C)c([C@H](OC(C)(C)C)C(=O)O)c3N3CCC(C)(C)CC3)ccc2C1 [Compound 115, (S)-2-(tert-butoxy)-2-(4-(4,4-dimethylpiperidin-1-yl)-5-(2-(2-fluoro-6-methoxybenzyl)-1,2,3,4-tetrahydroisoquinolin-6-yl)-2,6-dimethylpyridin-3-yl)acetic acid] | < 0.1 | –
COc1ccc(F)c(CN2CCc3cc(-c4c(C)nc(C)c([C@H](OC(C)(C)C)C(=O)O)c4N4CCC(C)(C)CC4)ccc3C2)c1 [Compound 116, (S)-2-(tert-butoxy)-2-(4-(4,4-dimethylpiperidin-1-yl)-5-(2-(2-fluoro-5-methoxybenzyl)-1,2,3,4-tetrahydroisoquinolin-6-yl)-2,6-dimethylpyridin-3-yl)acetic acid] | < 0.1 | 0.002
COc1cc(F)ccc1CN1CCc2cc(-c3c(C)nc(C)c([C@H](OC(C)(C)C)C(=O)O)c3N3CCC(C)(C)CC3)ccc2C1 [Compound 117, (S)-2-(tert-butoxy)-2-(4-(4,4-dimethylpiperidin-1-yl)-5-(2-(4-fluoro-2-methoxybenzyl)-1,2,3,4-tetrahydroisoquinolin-6-yl)-2,6-dimethylpyridin-3-yl)acetic acid] | < 0.1 | –
Cc1nc(C)c([C@H](OC(C)(C)C)C(=O)O)c(N2CCC(C)(C)CC2)c1-c1ccc2c(c1)CCN(Cc1cccc(OC(F)F)c1)C2 [Compound 118, (S)-2-(tert-butoxy)-2-(5-(2-(3-(difluoromethoxy)benzyl)-1,2,3,4-tetrahydroisoquinolin-6-yl)-4-(4,4-dimethylpiperidin-1-yl)-2,6-dimethylpyridin-3-yl)acetic acid] | < 0.1 | –
COc1ccc(C)cc1CN1CCc2cc(-c3c(C)nc(C)c([C@H](OC(C)(C)C)C(=O)O)c3N3CCC(C)(C)CC3)ccc2C1 [Compound 119, (S)-2-(tert-butoxy)-2-(4-(4,4-dimethylpiperidin-1-yl)-5-(2-(2-methoxy-5-methylbenzyl)-1,2,3,4-tetrahydroisoquinolin-6-yl)-2,6-dimethylpyridin-3-yl)acetic acid] | < 0.1 | –
Cc1nc(C)c([C@H](OC(C)(C)C)C(=O)O)c(N2CCC(C)(C)CC2)c1-c1ccc2c(c1)CCN(Cc1ccc(F)c(OC(F)(F)F)c1)C2 [Compound 120, (S)-2-(tert-butoxy)-2-(4-(4,4-dimethylpiperidin-1-yl)-5-(2-(4-fluoro-3-(trifluoromethoxy)benzyl)-1,2,3,4-tetrahydroisoquinolin-6-yl)-2,6-dimethylpyridin-3-yl)acetic acid] | < 0.1 | –
Cc1nc(C)c([C@H](OC(C)(C)C)C(=O)O)c(N2CCC(C)(C)CC2)c1-c1ccc2c(c1)CCN(Cc1cccc(OC(F)(F)C(F)F)c1)C2 [Compound 121, (S)-2-(tert-butoxy)-2-(4-(4,4-dimethylpiperidin-1-yl)-2,6-dimethyl-5-(2-(3-(1,1,2,2-tetrafluoroethoxy)benzyl)-1,2,3,4-tetrahydroisoquinolin-6-yl)pyridin-3-yl)acetic acid] | < 0.1 | –
COc1cc(F)cc(CN2CCc3cc(-c4c(C)nc(C)c([C@H](OC(C)(C)C)C(=O)O)c4N4CCC(C)(C)CC4)ccc3C2)c1 [Compound 122, (S)-2-(tert-butoxy)-2-(4-(4,4-dimethylpiperidin-1-yl)-5-(2-(3-fluoro-5-methoxybenzyl)-1,2,3,4-tetrahydroisoquinolin-6-yl)-2,6-dimethylpyridin-3-yl)acetic acid] | < 0.1 | –
Cc1nc(C)c([C@H](OC(C)(C)C)C(=O)O)c(N2CCC(C)(C)CC2)c1-c1ccc2c(c1)CCN(Cc1ccccc1OC(F)(F)F)C2 [Compound 123, (S)-2-(tert-butoxy)-2-(4-(4,4-dimethylpiperidin-1-yl)-2,6-dimethyl-5-(2-(2-(trifluoromethoxy)benzyl)-1,2,3,4-tetrahydroisoquinolin-6-yl)pyridin-3-yl)acetic acid] | < 0.1 | 0.011
COc1ccc(F)cc1CN1CCc2cc(-c3c(C)nc(C)c([C@H](OC(C)(C)C)C(=O)O)c3N3CCC(C)(C)CC3)ccc2C1 [Compound 124, (S)-2-(tert-butoxy)-2-(4-(4,4-dimethylpiperidin-1-yl)-5-(2-(5-fluoro-2-methoxybenzyl)-1,2,3,4-tetrahydroisoquinolin-6-yl)-2,6-dimethylpyridin-3-yl)acetic acid] | < 0.1 | –
Cc1nc(C)c([C@H](OC(C)(C)C)C(=O)O)c(N2CCC(C)(C)CC2)c1-c1ccc2c(c1)CCN(Cc1ccc(OC(F)(F)C(F)F)cc1)C2 [Compound 125, (S)-2-(tert-butoxy)-2-(4-(4,4-dimethylpiperidin-1-yl)-2,6-dimethyl-5-(2-(4-(1,1,2,2-tetrafluoroethoxy)benzyl)-1,2,3,4-tetrahydroisoquinolin-6-yl)pyridin-3-yl)acetic acid] | < 0.1 | –
CCOc1cc(CN2CCc3cc(-c4c(C)nc(C)c([C@H](OC(C)(C)C)C(=O)O)c4N4CCC(C)(C)CC4)ccc3C2)c(F)cc1F [Compound 126, (S)-2-(tert-butoxy)-2-(4-(4,4-dimethylpiperidin-1-yl)-5-(2-(5-ethoxy-2,4-difluorobenzyl)-1,2,3,4-tetrahydroisoquinolin-6-yl)-2,6-dimethylpyridin-3-yl)acetic acid] | < 0.1 | –
Cc1nc(C)c([C@H](OC(C)(C)C)C(=O)O)c(N2CCC(C)(C)CC2)c1-c1ccc2c(c1)CCN(Cc1ccc(Cl)c(Cl)c1)C2 [Compound 127, (S)-2-(tert-butoxy)-2-(5-(2-(3,4-dichlorobenzyl)-1,2,3,4-tetrahydroisoquinolin-6-yl)-4-(4,4-dimethylpiperidin-1-yl)-2,6-dimethylpyridin-3-yl)acetic acid] | < 0.1 | –
Cc1nc(C)c([C@H](OC(C)(C)C)C(=O)O)c(N2CCC(C)(C)CC2)c1-c1ccc2c(c1)CCN(Cc1c(Cl)cccc1Cl)C2 [Compound 128, (S)-2-(tert-butoxy)-2-(5-(2-(2,6-dichlorobenzyl)-1,2,3,4-tetrahydroisoquinolin-6-yl)-4-(4,4-dimethylpiperidin-1-yl)-2,6-dimethylpyridin-3-yl)acetic acid] | < 0.1 | –
COc1cccc(CN2CCc3cc(-c4c(C)nc(C)c([C@H](OC(C)(C)C)C(=O)O)c4N4CCC(C)(C)CC4)ccc3C2)c1Cl [Compound 129, (S)-2-(tert-butoxy)-2-(5-(2-(2-chloro-3-methoxybenzyl)-1,2,3,4-tetrahydroisoquinolin-6-yl)-4-(4,4-dimethylpiperidin-1-yl)-2,6-dimethylpyridin-3-yl)acetic acid] | < 0.1 | 0.003
Cc1nc(C)c([C@H](OC(C)(C)C)C(=O)O)c(N2CCC(C)(C)CC2)c1-c1ccc2c(c1)CCN(Cc1cccc(Cl)c1F)C2 [Compound 130, (S)-2-(tert-butoxy)-2-(5-(2-(3-chloro-2-fluorobenzyl)-1,2,3,4-tetrahydroisoquinolin-6-yl)-4-(4,4-dimethylpiperidin-1-yl)-2,6-dimethylpyridin-3-yl)acetic acid] | < 0.1 | –
Cc1cc(Cl)ccc1CN1CCc2cc(-c3c(C)nc(C)c([C@H](OC(C)(C)C)C(=O)O)c3N3CCC(C)(C)CC3)ccc2C1 [Compound 131, (S)-2-(tert-butoxy)-2-(5-(2-(4-chloro-2-methylbenzyl)-1,2,3,4-tetrahydroisoquinolin-6-yl)-4-(4,4-dimethylpiperidin-1-yl)-2,6-dimethylpyridin-3-yl)acetic acid] | < 0.1 | –
Cc1ccc(CN2CCc3cc(-c4c(C)nc(C)c([C@H](OC(C)(C)C)C(=O)O)c4N4CCC(C)(C)CC4)ccc3C2)cc1Cl [Compound 132, (S)-2-(tert-butoxy)-2-(5-(2-(3-chloro-4-methylbenzyl)-1,2,3,4-tetrahydroisoquinolin-6-yl)-4-(4,4-dimethylpiperidin-1-yl)-2,6-dimethylpyridin-3-yl)acetic acid] | < 0.1 | –
Cc1ccc(Cl)cc1CN1CCc2cc(-c3c(C)nc(C)c([C@H](OC(C)(C)C)C(=O)O)c3N3CCC(C)(C)CC3)ccc2C1 [Compound 133, (S)-2-(tert-butoxy)-2-(5-(2-(5-chloro-2-methylbenzyl)-1,2,3,4-tetrahydroisoquinolin-6-yl)-4-(4,4-dimethylpiperidin-1-yl)-2,6-dimethylpyridin-3-yl)acetic acid] | < 0.1 | –
Cc1cc(CN2CCc3cc(-c4c(C)nc(C)c([C@H](OC(C)(C)C)C(=O)O)c4N4CCC(C)(C)CC4)ccc3C2)ccc1Cl [Compound 134, (S)-2-(tert-butoxy)-2-(5-(2-(4-chloro-3-methylbenzyl)-1,2,3,4-tetrahydroisoquinolin-6-yl)-4-(4,4-dimethylpiperidin-1-yl)-2,6-dimethylpyridin-3-yl)acetic acid] | < 0.1 | 0.012
Cc1nc(C)c([C@H](OC(C)(C)C)C(=O)O)c(N2CCC(C)(C)CC2)c1-c1ccc2c(c1)CCN(Cc1c(F)cc(Cl)cc1F)C2 [Compound 135, (S)-2-(tert-butoxy)-2-(5-(2-(4-chloro-2,6-difluorobenzyl)-1,2,3,4-tetrahydroisoquinolin-6-yl)-4-(4,4-dimethylpiperidin-1-yl)-2,6-dimethylpyridin-3-yl)acetic acid] | < 0.1 | –
Cc1nc(C)c([C@H](OC(C)(C)C)C(=O)O)c(N2CCC(C)(C)CC2)c1-c1ccc2c(c1)CCN(Cc1c(F)cccc1Cl)C2 [Compound 136, (S)-2-(tert-butoxy)-2-(5-(2-(2-chloro-6-fluorobenzyl)-1,2,3,4-tetrahydroisoquinolin-6-yl)-4-(4,4-dimethylpiperidin-1-yl)-2,6-dimethylpyridin-3-yl)acetic acid] | < 0.1 | –

Source: patent US10189816B2, “Substituted pyridines as inhibitors of human immunodeficiency virus replication” (priority 2015, dated 2019)
